Measured values as given in PubChem BioAssay AID2060506 (Molecular Pharmacology Branch, DTP, NCI, 2025).
Where “and” joins values, the source holds several entries; their conditions need not be identical. Identical values can stand only once. Values belong to the compound of their own block, whether it stands above or below them.

System: 598228-144-R-J1-PDC complex spheroid viability
Assay: Anticancer human tumor 598228-144-R-J1-PDC patient-derived serous endometrial adenocarcinoma cell line growth inhibition [GQUAD]
Conditions: for viability, T/C: stronger effect = lower value
Text: DNA G-quadruplex Stabilizer Agents in Combinations in Complex Spheroids
A high-throughput screen of multi-cell type tumor spheroids was designed to identify active combinations of DNA G-quadruplex stabilizer agents and targeted small molecules. Complex spheroids include a stromal component modeled by human endothelial cells (HUVEC) and fibroblasts modeled by human mesenchymal stem cells (MSCs). The concentration ranges selected for each drug and investigational agent were based upon clinically achievable concentrations if the clinical Cmax of the agent was known.
Compounds. The drugs and investigational agents: pidnarulex (CX-5461; NSC782164), APTO-253 (NSC789042), BRACO-19 (NSC847499), peposertib (NSC802822), ceralasertib (NSC780249), elimusertib (NSC800525), camonsertib (NSC841442), AZD-1390 (NSC803789), olaparib (NSC753686), talazoparib (NSC767125), ART-558 (NSC835418), sotorasib (NSC818433), MRTX-1133 (NSC836407), SN-38 (NSC673596), topotecan (NSC609699), etoposide (NSC141540), doxorubicin (NSC123127), gemcitabine (NSC613327), 5-fluorouracil (NSC19893), paclitaxel (NSC125973), vemurafenib (NSC761431), panobinostat (NSC761190), R-306465 (JNJ-16241199; NSC773264), adavosertib (NSC754352), TP-3654 (NSC805149), carboplatin (NSC241240), KSQ-4279 (NSC840948), and staurosporine (NSC755774) were obtained from the National Cancer Institute (NCI) Developmental Therapeutics Program Chemical Repository (34). The FDA-approved anticancer drug set is available from the NCI Developmental Therapeutics Program. […] The stock solutions were prepared in dimethyl sulfoxide (DMSO, Sigma-Aldrich, St. Louis, MO, cat. D2650) at 800-fold the tested concentration and stored at -70 degrees C prior to their use. All drugs and investigational agents were tested over a range starting from a high concentration at or near the clinical Cmax and decreasing in half-log increments. If the clinical Cmax for an agent had not been determined, the highest concentration tested was 10 microM.
2.3 Cell Culture. All cells were maintained in an incubator at 37 degrees C and 5% CO2 with 95% humidity. The PDC lines were cultured according to standard operating procedures established by the NCI PDMR. All PDCs were thawed and cultured in Matrigel-coated flasks prepared with a working solution of 1X Ham's F-12 nutrient mix, without supplementation (Invitrogen, cat. 11765054), 100 U/mL penicillin-streptomycin (Invitrogen, cat. 15140122), and 2.5% Matrigel (Corning Inc., cat. 354248) for the first three passages. The 857933-349-R-J2-PDC line was cultured in 6C/Colon 1B media, which includes advanced DMEM/F-12 (Thermo Fisher Scientific, cat. 12634028), 10 mM HEPES (Thermo Fisher Scientific, cat. 15630080), 1X GlutaMAX supplement (Thermo Fisher Scientific, cat. 35050061), 0.1 mg/mL primocin (InvivoGen, cat. ant-pm-2), 10% defined fetal bovine serum, heat inactivated (HyClone Laboratories Inc., cat. SH30070.03HI), 50% L-WRN conditioned media (ATCC, cat. CRL-3276), 1.25 mM N-Acetyl-L-cysteine (Sigma-Aldrich, cat. A9165), 10 mM nicotinamide (Sigma-Aldrich, cat. N0636), 1X B-27 supplement (Thermo Fisher Scientific, cat. 17504044), 1X N-2 supplement (Thermo Fisher Scientific, cat. 17502048), 10 microM Y-27632 dihydrochloride (Tocris Bioscience, cat. 1254), and 50 ng/mL human EGF recombinant protein (Thermo Fisher Scientific, cat. PHG0311). The 485176-168-R4-J1-PDC line was cultured in Panc media, which includes all 6C/Colon 1B media components plus 100 ng/mL human FGF-10 (Thermo Fisher Scientific, cat. 100-26), 500 nM SB-431542 (Selleckchem, cat. S1067), and gastrin (Tocris, cat. 3006).
[…]
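Note: spheroids exposed to the agents for one week before reading.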
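Throughout, for viability, T/C: percent of vehicle DMSO control viability so 100% = untreated growth.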

IC50 (curve of compound): 0.0804 µM and < 0.0316 µM and 0.0504 µM
SMILES: CC(=O)O[C@H]1C(=O)[C@@]2(C)[C@H]([C@H](OC(=O)c3ccccc3)[C@]3(O)C[C@H](OC(=O)[C@H](O)[C@@H](NC(=O)c4ccccc4)c4ccccc4)C(C)=C1C3(C)C)[C@]1(OC(C)=O)CO[C@@H]1C[C@@H]2O
viability, T/C (compound 0.0316 µM): 57.9% and 47.5% and 53%
viability, T/C (compound 0.1 µM): 41.1% and 46.1% and 48.6%
viability, T/C (compound 0.316 µM): 52.3% and 37.7% and 45%
viability, T/C (compound 1 µM): 42.3% and 36.8% and 38.9%
viability, T/C (compound 3.16 µM): 47.5% (2×) and 40.5%
viability, T/C (compound 10 µM): 49.1% and 43% and 39.1%

IC50 (curve of compound): 5.53 µM and 5.37 µM and 9.39 µM
SMILES: CC1COCCN1c1cc(C2(S(C)(=N)=O)CC2)nc(-c2ccnc3[nH]ccc23)n1 (stereo not drawn)
viability, T/C (compound 0.0316 µM): 91.8% and 116% and 77.8%
viability, T/C (compound 0.1 µM): 83.7% and 108% and 99.1%
viability, T/C (compound 0.316 µM): 88.9% and 94.8% and 83.4%
viability, T/C (compound 1 µM): 77.9% and 77.5% and 88.2%
viability, T/C (compound 3.16 µM): 60.3% and 46.7% and 97.7%
viability, T/C (compound 10 µM): 39.3% and 49.6% and 47.7%

IC50 (curve of compound): 9.17 µM and 7.57 µM and 6.25 µM
SMILES: COc1cc(C2c3cc4c(cc3C(OC3OC5COC(C)OC5C(O)C3O)C3COC(=O)C23)OCO4)cc(OC)c1O (stereo not drawn)
viability, T/C (compound 0.0316 µM): 89.4% and 97.4% and 93.6%
viability, T/C (compound 0.1 µM): 96.5% and 82.4% and 72.5%
viability, T/C (compound 0.316 µM): 74.2% and 76.2% and 74.6%
viability, T/C (compound 1 µM): 78.1% and 70.3% and 58.1%
viability, T/C (compound 3.16 µM): 64.4% and 59.9% and 78.7%
viability, T/C (compound 10 µM): 48% and 46% and 36%

Second part, the compound before the results:

SMILES: Cn1ncnc1[C@H]1c2n[nH]c(=O)c3cc(F)cc(c23)N[C@@H]1c1ccc(F)cc1 + CN(C)c1ccc(Nc2c3ccc(NC(=O)CCN4CCCC4)cc3nc3cc(NC(=O)CCN4CCCC4)ccc23)cc1
IC50 (curve of first compound, second compound 0.0316 µM): > 0.316 µM
IC50 (curve of first compound, second compound 0.1 µM): > 0.316 µM
IC50 (curve of first compound, second compound 0.316 µM): > 0.316 µM
IC50 (curve of first compound, second compound 1 µM): > 0.316 µM
IC50 (curve of first compound, second compound 3.16 µM): > 0.316 µM
IC50 (curve of first compound, second compound 10 µM): > 0.316 µM
viability, T/C (second compound 0.0316 µM, first compound 0.000999 µM): 118%
viability, T/C (second compound 0.0316 µM, first compound 0.00316 µM): 93.2%
viability, T/C (second compound 0.0316 µM, first compound 0.00999 µM): 103%
viability, T/C (second compound 0.0316 µM, first compound 0.0316 µM): 86.3%
viability, T/C (second compound 0.0316 µM, first compound 0.0999 µM): 80.8%
viability, T/C (second compound 0.0316 µM, first compound 0.316 µM): 76.8%
viability, T/C (second compound 0.1 µM, first compound 0.000999 µM): 104%
viability, T/C (second compound 0.1 µM, first compound 0.00316 µM): 97.5%
viability, T/C (second compound 0.1 µM, first compound 0.00999 µM): 100%
viability, T/C (second compound 0.1 µM, first compound 0.0316 µM): 80.8%
viability, T/C (second compound 0.1 µM, first compound 0.0999 µM): 87.8%
viability, T/C (second compound 0.1 µM, first compound 0.316 µM): 76.2%
viability, T/C (second compound 0.316 µM, first compound 0.000999 µM): 106%
viability, T/C (second compound 0.316 µM, first compound 0.00316 µM): 108%
viability, T/C (second compound 0.316 µM, first compound 0.00999 µM): 100%
viability, T/C (second compound 0.316 µM, first compound 0.0316 µM): 106%
viability, T/C (second compound 0.316 µM, first compound 0.0999 µM): 87.6%
viability, T/C (second compound 0.316 µM, first compound 0.316 µM): 62%
viability, T/C (second compound 1 µM, first compound 0.000999 µM): 101%
viability, T/C (second compound 1 µM, first compound 0.00316 µM): 97.3%
viability, T/C (second compound 1 µM, first compound 0.00999 µM): 114%
viability, T/C (second compound 1 µM, first compound 0.0316 µM): 110%
viability, T/C (second compound 1 µM, first compound 0.0999 µM): 95.7%
viability, T/C (second compound 1 µM, first compound 0.316 µM): 81.2%
viability, T/C (second compound 3.16 µM, first compound 0.000999 µM): 112%
viability, T/C (second compound 3.16 µM, first compound 0.00316 µM): 112%
viability, T/C (second compound 3.16 µM, first compound 0.00999 µM): 91.8%
viability, T/C (second compound 3.16 µM, first compound 0.0316 µM): 80.7%
viability, T/C (second compound 3.16 µM, first compound 0.0999 µM): 93.1%
viability, T/C (second compound 3.16 µM, first compound 0.316 µM): 69.8%
viability, T/C (second compound 10 µM, first compound 0.000999 µM): 91.7%
viability, T/C (second compound 10 µM, first compound 0.00316 µM): 86.3%
viability, T/C (second compound 10 µM, first compound 0.00999 µM): 96.2%
viability, T/C (second compound 10 µM, first compound 0.0316 µM): 68.7%
viability, T/C (second compound 10 µM, first compound 0.0999 µM): 73.2%
viability, T/C (second compound 10 µM, first compound 0.316 µM): 53.7%

SMILES: C=CCn1c(=O)c2cnc(Nc3ccc(N4CCN(C)CC4)cc3)nc2n1-c1cccc(C(C)(C)O)n1
viability, T/C (compound 0.0316 µM): 105% and 84.5% and 97.9%
viability, T/C (compound 0.1 µM): 81.6% and 94.9% and 101%
viability, T/C (compound 0.316 µM): 83% and 52.6% and 63%
viability, T/C (compound 1 µM): 46.9% and 51.9% and 42%
viability, T/C (compound 3.16 µM): 50.9% and 46.4% and 62.5%
viability, T/C (compound 10 µM): 45.4% and 49.7% and 66.2%

SMILES: Cc1[nH]c2ccccc2c1CCNCc1ccc(/C=C/C(=O)NO)cc1
viability, T/C (compound 0.000999 µM): 109% and 102% and 101%
viability, T/C (compound 0.00316 µM): 97.9% and 99.4% and 93.7%
viability, T/C (compound 0.00999 µM): 108% and 97.5% and 99%
viability, T/C (compound 0.0316 µM): 83.5% and 70.5% and 71.7%
viability, T/C (compound 0.0999 µM): 27.5% and 29.3% and 38.2%
viability, T/C (compound 0.316 µM): 0.72% and 0.83% and 0.61%
IC50 (curve of compound): 0.0631 µM and 0.0565 µM and 0.0673 µM

SMILES: CCCS(=O)(=O)Nc1ccc(F)c(C(=O)c2c[nH]c3ncc(-c4ccc(Cl)cc4)cc23)c1F
viability, T/C (compound 0.0316 µM): 122% and 103% and 107%
viability, T/C (compound 0.1 µM): 93.3% and 86.4% and 114%
viability, T/C (compound 0.316 µM): 104% and 110% and 102%
viability, T/C (compound 1 µM): 106% and 110% and 130%
viability, T/C (compound 3.16 µM): 100% and 90.5% and 112%
viability, T/C (compound 10 µM): 44.2% and 26.5% and 30.6%
IC50 (curve of compound): 8.88 µM and 6.56 µM and 7.61 µM
